Values after ≈ are worked out from the molar mass of the structure shown. Read-outs that look alike come from different tables or passages of the source.
What was measured:
[1] = system: WT Mtb (Erdman) in primary murine BMDMs; experiment: Primary murine bone marrow-derived macrophage infection, CFU; format: cell-based, Mycobacterium tuberculosis; conditions: 10 μM; for CFU/ml in BMDMs, average: Fig 1I
Protocol: C57BL/6J wild-type mice (Jackson Laboratories) were used for extraction of BMDMs. Cells were harvested and expanded in DMEM containing 10% FBS, 15% L-cell conditioned media, 2 mM L-glutamine, 1 mM sodium pyruvate, and penicillin/streptomycin as needed in a 37°C incubator in a 5% CO2 atmosphere. […] Macrophages were lysed with water containing 0.01% sodium dodecyl sulfate and a dilution series of the samples plated on 7H10 agar for CFU determination.

[2] = Pharmacokinetic assay, single oral dose in CD-1 mice; format: in vivo; conditions: female, mouse, plasma; CD-1 mice, single 5 mg/kg po dose; read-out: plasma AUC0–5h
Protocol: Blood samples were collected in K2EDTA-coated tubes predose, 0.5, 1, 3, and 5 hours post-dose, placed on ice, and centrifuged to recover plasma. The recovered plasma was kept at −80°C as needed prior to analysis, which was performed as previously described. In brief, a Sciex Applied Biosystems Qtrap 4000 triple-quadrupole mass spectrometer coupled to an Agilent 1260 HPLC system was used for HPLC coupled to tandem mass spectrometry (LC–MS/MS) quantitative analysis of the samples, with chromatography attained using an Agilent Zorbax SB-C8 column (2.1 × 30 mm; particle size, 3.5 μm) and a reverse-phase gradient elution. The aqueous mobile phase consisted of Milli-Q deionized water with 0.1% formic acid (A), while the organic mobile phase was 0.1% formic acid in acetonitrile (B). The gradient setup was as follows: 5% to 90% B over 2 minutes, 1 minute at 90% B, then an immediate drop to 5% B and an additional 1 minute at 5% B. Quantification of molecules was carried out via multiple reaction monitoring of parent/daughter transitions in electrospray positive ionization mode, and sample analyses accepted if quality control and standard samples had concentrations within 20% of the nominal concentration. Preparation of compounds for generation of standard curves and quality control spiking solutions were performed as previously described. Data were processed using Analyst software (Version 1.6.2; Applied Biosystems Sciex, Framingham, MA).

[3] = Kinetic aqueous solubility; format: physicochemical; conditions: pH 7.4 phosphate buffered saline; read-out: kinetic aqueous solubility (S)
Protocol: (§1) Assays examining mouse and human liver microsomal stability, kinetic aqueous solubility, mouse and human plasma protein binding and stability, and human cytochrome P450 inhibition characteristics of the compounds were run by BioDuro (San Diego, CA), using standard protocols as previously described [37]. hERG inhibition assays were also performed by BioDuro.

[4] = system: CDC1551(rv2390c′::GFP) reporter Mtb strain, response to high [Cl−]; experiment: microbe, parasite or virus in culture; format: cell-based, Mycobacterium tuberculosis
[5] = system: Mtb growth in J774 macrophage-like cells; experiment: J774 infection in 96-well plates, mKO fluorescence 6 days post-infection; format: cell-based, Mycobacterium tuberculosis; conditions: 6 days post-infection
Protocol: For J774 infection in 96-well plates, 1.8 × 10^5 J774 cells were seeded per well in 180 μl of J774 infection media 1 day prior to infection. On the day of the assay, log-phase Mtb constitutively expressing mKO were pelleted and resuspended in 1 ml basal uptake buffer, passed 6× through a tuberculin syringe with a 25 G × 5/8″ needle, then resuspended in J774 infection media to a final OD600 = 0.2. Media was removed from 96-well plate containing the J774 cells, with 140 μl of fresh J774 infection media added back to each well. A volume of 40 μl of the Mtb suspension at OD600 = 0.2 was added to each well, followed by addition of appropriate concentration of compound or DMSO in a 20-μl final volume in J774 infection media (compound final concentration 10 μM, rifampicin final concentration 5 μM, DMSO final concentration 0.1%/well). Bacterial mKO fluorescence was read immediately after infection using a Biotek Synergy Neo2 microplate reader (bottom read monochromator, excitation 543/10 nm, emission 565/10 nm), and again 6 days post-infection. Plates were kept in humidified ziplock bags in a 37°C, 5% CO2 incubator. mKO fluorescence in DMSO-treated control samples were defined as 100% growth, and fluorescence observed in treatment conditions calculated as a percentage from that set value.

[6] = system: CDC1551(rv2390c′::GFP) reporter Mtb strain; experiment: microbe, parasite or virus in culture; conditions: Mycobacterium tuberculosis, 216 h
[7] = system: CDC1551(rv1405c′::GFP) reporter Mtb strain; experiment: microbe, parasite or virus in culture; format: cell-based, Mycobacterium tuberculosis; conditions: for NPA - rv1405c'::GFP, average: Fig 1D
[8] = Mouse liver microsomal stability; format: in vitro ADME; conditions: mouse liver microsomes; read-out: half-life (t1/2) in mouse liver microsomes
Protocol: as §1

[9] = system: CDC1551(rv2390c′::GFP) reporter Mtb strain; conditions: pH 7
[10] = system: Mtb growth in J774 murine macrophage-like cells; experiment: microbe, parasite or virus in culture; format: cell-based, Mycobacterium tuberculosis; conditions: for NPI (Mtb growth in J774 cells), average: Fig 1F

Structure (SMILES): O=C(c1cnc2ccccn12)N1CCCC(CCc2cccc(C(F)(F)F)c2)C1 (stereo not shown) [C5, FC(F)(F)C1=CC=CC(CCC2CCCN(C2)C(=O)C2=CN=C3C=CC=CN23)=C1]
- Effect on bacterial load / Mtb growth in primary murine BMDMs ([1]; 8-day infection time course, vs DMSO): significant decrease in bacterial load
- CFU/ml in BMDMs, average ([1]; day 2): 152000 CFU/ml
- CFU/ml in BMDMs, average ([1]; day 4): 191000 CFU/ml
- CFU/ml in BMDMs, average ([1]; day 6): 264500 CFU/ml
- CFU/ml in BMDMs, average ([1]; day 8): 318000 CFU/ml
- AUC(0-t) [2]: 42 ng·h/mL
- solubility kinetic [3]: 6.67 µM (≈ 2.68 µg/mL)
- NPA - rv2390c'::GFP, average ([4]; 0.0390625 µM, Fig 1C): 99.0333%
- NPA - rv2390c'::GFP, average ([4]; 0.078125 µM, Fig 1C): 96.3333%
- NPA - rv2390c'::GFP, average ([4]; 0.15625 µM, Fig 1C): 99.1%
- NPA - rv2390c'::GFP, average ([4]; 0.3125 µM, Fig 1C): 113.667%
- NPA - rv2390c'::GFP, average ([4]; 0.625 µM, Fig 1C): 116.667%
- NPA - rv2390c'::GFP, average ([4]; 1.25 µM, Fig 1C): 131.667%
- NPA - rv2390c'::GFP, average ([4]; 2.5 µM, Fig 1C): 132.333%
- NPA - rv2390c'::GFP, average ([4]; 5 µM, Fig 1C): 137%
- NPA - rv2390c'::GFP, average ([4]; 10 µM, Fig 1C): 131.333%
- NPA - rv2390c'::GFP, average ([4]; 20 µM, Fig 1C): 142.333%
- activity at 10 µM ([4]; Mycobacterium tuberculosis, 144 h, pH 6.4, […], DMSO positive control = 100%, read-out: Primary screen rv2390c'::GFP NPA%): 182%
- activity at 10 µM ([4]; Mycobacterium tuberculosis, 144 h, 10 µM, pH 6.4, 250 mM NaCl, 6 days, read-out: rv2390c'::GFP validation assay NPA% at 10 µM compound): 131 ± 9.8%
- activity at 20 µM ([4]; Mycobacterium tuberculosis, 144 h, 20 µM, pH 6.4, 250 mM NaCl, 6 days, read-out: rv2390c'::GFP validation assay NPA% at 20 µM compound): 142 ± 4.2%
- AC50 ([4]; Mycobacterium tuberculosis, 144 h, pH 6.4, 250 mM NaCl, 6 days, Fig 1C, read-out: AC50 (activatory concentration, 50%), rv2390c′::GFP): 500 nM
- % growth of Mtb in J774 cells, average ([5]; 10 μM compound, DMSO = 100%, Fig 1H): 37.9568%
- Inhibition of Mtb growth in J774 cells ([5]; 10 μM): Mtb growth inhibition
- fold induction at 10 µM ([6]; pH 7, read-out: Fold induction of rv2390c′::GFP reporter, average): 6.34
- fold induction at 10 µM ([6]; read-out: Fold induction of rv2390c′::GFP reporter, average): 5.92
- NPA - rv1405c'::GFP, average ([7]; 0.0390625 µM): 91.05%
- NPA - rv1405c'::GFP, average ([7]; 0.078125 µM): 91.6%
- NPA - rv1405c'::GFP, average ([7]; 0.15625 µM): 98.45%
- NPA - rv1405c'::GFP, average ([7]; 0.3125 µM): 118%
- NPA - rv1405c'::GFP, average ([7]; 0.625 µM): 125%
- NPA - rv1405c'::GFP, average ([7]; 1.25 µM): 130%
- NPA - rv1405c'::GFP, average ([7]; 2.5 µM): 114.5%
- NPA - rv1405c'::GFP, average ([7]; 5 µM): 132.5%
- NPA - rv1405c'::GFP, average ([7]; 20 µM): 145.5%
- activity at 10 µM ([7]; Mycobacterium tuberculosis, read-out: rv1405c'::GFP secondary assay NPA% at 10 µM compound): 135 ± 14.8%
- activity at 20 µM ([7]; Mycobacterium tuberculosis, read-out: rv1405c'::GFP secondary assay NPA% at 20 µM compound): 147 ± 7%
- half-life [8]: 4.98 min
- Ability to increase rv2390c′::GFP reporter signal in high [Cl−] [9]: increased rv2390c′::GFP reporter signal
- NPI (Mtb growth in J774 cells), average ([10]; 0.078125 µM, 5 µM rifampicin = 100% inhibition): -6.175%
- NPI (Mtb growth in J774 cells), average ([10]; 0.15625 µM): 0.5445%
- NPI (Mtb growth in J774 cells), average ([10]; 0.3125 µM): -0.235%
- NPI (Mtb growth in J774 cells), average ([10]; 0.625 µM): 9.79%
- NPI (Mtb growth in J774 cells), average ([10]; 1.25 µM): 32.35%
- NPI (Mtb growth in J774 cells), average ([10]; 2.5 µM): 39.55%
- NPI (Mtb growth in J774 cells), average ([10]; 5 µM): 48.4%
- NPI (Mtb growth in J774 cells), average ([10]; 10 µM): 50.85%
- NPI (Mtb growth in J774 cells), average ([10]; 20 µM): 55%
- inhibition at 10 µM ([10]; Mycobacterium tuberculosis, J774, 144 h, read-out: J774 tertiary assay % inhibition compared to Rif at 10 µM compound): 50.9 ± 3.2%
- inhibition at 20 µM ([10]; Mycobacterium tuberculosis, J774, 144 h, read-out: J774 tertiary assay % inhibition compared to Rif at 20 µM compound): 55 ± 5.8%

— PMC8351955, “Targeting Mycobacterium tuberculosis response to environmental cues for the development of effective antitubercular drugs” (PLoS Biology, 2021)
